# Values joined by “and” are separate entries in the source; they are usually repeats but may differ in a detail not shown here. Equal values may be shown once.
# How the values were obtained:
# [1] = biological target: T1, HSV-1 TK (Human herpesvirus 1, UniProt P0DTH5); test: Competitive inhibition of [3H]-thymidine phosphorylation by partially purified HSV-1 TK; format: biochemical
# T1 construct: HSV thymidine kinase (HSV TK) was isolated from HELA (BU25) cells infected with the SW148 strain of HSV-1; made in house; host or cells: HeLa (BU25) thymidine-kinase-deficient cells infected with HSV-1 strain S148/SW148
# T1 sequence (P0DTH5 whole entry): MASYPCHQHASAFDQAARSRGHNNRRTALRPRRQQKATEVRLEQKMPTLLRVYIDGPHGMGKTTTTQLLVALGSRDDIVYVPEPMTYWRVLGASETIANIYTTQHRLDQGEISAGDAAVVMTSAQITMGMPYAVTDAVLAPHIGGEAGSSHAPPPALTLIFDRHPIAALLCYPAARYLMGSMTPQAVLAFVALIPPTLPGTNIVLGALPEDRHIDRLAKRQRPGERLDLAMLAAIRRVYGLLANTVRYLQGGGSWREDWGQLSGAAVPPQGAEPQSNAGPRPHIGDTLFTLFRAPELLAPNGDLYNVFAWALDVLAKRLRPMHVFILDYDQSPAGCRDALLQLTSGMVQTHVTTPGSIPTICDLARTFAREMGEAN
# Procedure: The Ki's were determined from a plot of the slope of each line versus the concentration of the competitor (D-, L, or D,L-2'CdG) and are summarized below: TABLE 2
# [2] = system: HBV; test: HBV DNA production and replication in 2.2.15 cell cultures; format: cell-based, Hepatitis B virus (HBV); settings: 300 UG/ML
# Procedure: 2'-CdG was tested at three concentrations (50 ng/ml, 500 ng/ml, and 5 ug/ml) against the HBV-producing, human liver cell line, 2.2.15 (Sells et al., J. Virol. 62:2836, 1989). A racemic (D,L) preparation, as well as the purified D and L isomers were tested. For these analyses compounds were tested in duplicate at all concentrations. Ara-AMP and ddG (2'3'-dideoxyguanosine) were used as HBV inhibitory control compounds. […] The nucleoside analog, ddG was used as an additional control compound since ddG has activity against duck hepatitis B virus in chronically infected Peking ducks (Lee et al., Antimicrob. Agents Chemother. 33:336, 1989) and 2'-CdG is also a deoxyguanosine analog.
# 2.2.15 cells were seeded in 6 well culture plates and grown to confluence over a 10 day period in medium with 5% FBS. Test compounds were then added daily for a continuous 10 day period in medium with 1% dialyzed FBS. […] Compounds were tested, in duplicate cultures, at 3 concentrations covering a 100-fold range. Culture medium (changed daily during the treatment period) was collected and stored for analysis of extracellular (virion) HBV DNA from days 0, 3, 6, and 10 of the treatment period. This allowed for an analysis of the level of HBV virion production during discrete 24 hour intervals and reduced the potential for the buildup of toxic metabolites derived from the test compounds. Treated cells were lysed following the 10th day of treatment for the analysis of intracellular HBV genomic forms. HBV DNA was analyzed in a quantitative manner for (i) overall levels (both extracellular and intracellular DNA) and (ii) the relative rate of HBV replication (intracellular DNA only).
# HBV DNA levels were measured by comparison to known amounts of HBV DNA standards applied to every nitrocellulose filter (gel or slot blot) using an AMBIS Beta Scanner. Standard curves, generated by multiple analyses, were used to correlate CPM measurements with relative levels of target HBV DNA. The levels of HBV DNA in each of three classes of intracellular viral genomic forms were individually quantitated: integrated HBV DNA, episomal monomeric genomes and HBV DNA replication intermediates (RI). Integrated HBV DNA was used to normalize the relative amounts of DNA in each lane because the levels of this class of HBV DNA would be expected to remain constant on a per cell basis. The levels of the monomeric HBV genomes and RI were used as an indicator of the relative level of HBV replication.
# [3] = system: HSV-1 (strain 377, TK+); test: Antiviral activity against HSV-1; format: cell-based
# Procedure: (§1) D-2'-CdG and L-2'-CdG were tested, alongside D,L-2'-CdG, against both HSV-1 (strain 377, TK+; obtained from Dr. Earl Kern, University of Alabama) and HSV-2 (strain MS, TK+; also obtained from Dr. Earl Kern). In these tests (Table 5), Ara-A and acyclovir (ACV) were the positive control drugs. In four tests vs. HSV-1, the antiviral activity (VR) and potency (MIC50) of D-2'-CdG were approximately the same as those of racemic 2-CdG. L-2'-CdG was only modestly active.
# [4] = system: HSV-2 (strain MS, TK+); test: Antiviral activity against HSV-2; format: cell-based
# Procedure: as §1
# These compounds were tested against HSV-2(TK^+). The VR of ACV was somewhat higher than the VR values of D-2'-CdG and D,L-2'-CdG, but the values of MIC50 of the two forms of 2'-CdG were lower. In addition, experiments comparing the antiviral activity D-2'-CdG with acyclovir against HSV-1 in human foreskin fibroblasts have shown an even greater potency, in favor of D-2'-CdG.
# [5] = 24 hours following 10th day of treatment
structure (smiles),measurement,setting,value
"Nc1nc2c(ncn2[C@H]2C[C@H](O)[C@@H](CO)O2)c(=O)[nH]1 [dGuo, reference compound]",Ki,[1],10.5 µM
"Nc1ncnc2c1ncn2[C@@H]1O[C@H](COP(=O)(O)O)[C@@H](O)[C@@H]1O [ARA-AMP, adenine arabinoside monophosphate, reference compound]",INTRACELLULAR HBV DNA INTEG.,[2]; [5],1.3 PG/UG CELL DNA and 1.1 PG/UG CELL DNA
same,INTRACELLULAR HBV DNA MONO.,[2]; [5],0.1 PG/UG CELL DNA
same,INTRACELLULAR HBV DNA RI,[2]; [5],0.2 PG/UG CELL DNA and 0.3 PG/UG CELL DNA
same,HBV DNA IN CULTURE MEDIUM DAY 0,[2]; day 0 of treatment,100 pg/mL and 95 pg/mL
same,HBV DNA IN CULTURE MEDIUM DAY 3,[2]; day 3,25 pg/mL and 30 pg/mL
same,HBV DNA IN CULTURE MEDIUM DAY 6,[2]; day 6,0 pg/mL
same,HBV DNA IN CULTURE MEDIUM DAY 10,[2]; day 10,0 pg/mL
"Nc1ncnc2c1ncn2[C@@H]1O[C@H](CO)[C@@H](O)[C@@H]1O [Ara-A, adenosine arabinoside, reference compound]",VR,"[3]; HSV-1, range of tests",1.6-2.5
same,EC50,"[3]; Human alphaherpesvirus 1, read-out: Mic50",10 to 34 µg/mL
same,VR,[4]; HSV-2,1.3
same,EC50,"[4]; Human alphaherpesvirus 2, read-out: Mic50",50 µg/mL

# — EP0684822B1, “CARBOCYCLIC DEOXYGUANOSINE ANALOGS FOR THE TREATMENT OF VIRAL INFECTIONS” (SOUTHERN RESEARCH INSTITUTE, priority 1993, dated 1994)
